The test system of one series is Albino wistar rats. Description: Hypoglycemic activity: inhibition of sucrose-induced raise in serum glucose levels (SGL). It is filed as in vivo. More on the design: Inhibitory rate (serum glucose level inhibitory rate): unit not given here. To be noted: oral dose 1 mg/Kg; for SGL (mean ± SE): 20 mL/kg of 20% sucrose orally after 30 minutes, blood drawn one hour after treatment, groups of six rats; for Inhibitory rate (serum glucose level inhibitory rate): mean increase in serum glucose levels of treated vs control groups. The method, then: Hypoglycemic activity: Hypoglycemic activity was tested by the inhibition of sucrose-induced raise in serum glucose levels (SGL), by the test substances in Albino wistar rats. The procedure involves fasting the rats for overnight at ad libitum water, numbered weighed and randomly divided into groups of six animals each. Prior to treatment blood samples were drawn from sinus orbital plexus of all animals using heparin coated glass capillaries under mild ether anesthesia. The blood samples were tested for serum glucose levels using enzymatic GOD/POD method. […] SGL=(test OD/Standard OD)×100 and the results were expressed in mg/dL. All the groups were treated orally with corresponding test substances, standard, vehicle (5% gum acacia). After 30 minutes, all animals were given 20 mL/kg of 20% sucrose solution orally using gastric tube. One hour after treatment, blood samples were drawn again under mild ether anesthesia and tested for serum glucose levels in a same procedure as described above for initial serum glucose estimation. The data was subjected to statistical treatment using t-test and inhibitory rate was calculated by comparing mean increase in serum glucose levels of control and treated groups. The corosolic acid analogs of this invention are found to show better hypoglycemic activity (Table 1; hypoglycemic activity is expressed in serum glucose level inhibitory rate values; higher the inhibitory rate value, higher is the activity) than the corosolic acid.

Another series has as its system 5-Lipoxygenase. Description: 5-Lipoxygenase inhibitory activity, colorimetric method (ferric xylenol orange, linoleic acid). It is filed as biochemical. The method, then: 5-Lipoxygenase activity: The corosolic acid analogs were screened for their 5-Lipoxygenase inhibitory potential using colorimetric method. The assay mixture contained 50 mM phosphate buffer pH 6.3, 5-Lipoxygenase, various concentrations of test substances in dimethyl sulphoxide and linoleic acid in a total volume of 0.5 mL, after 5 min incubation of above reaction mixture, 0.5 mL ferric xylenol orange reagent was added and OD was measured after two minutes at 585 nm using spectrophotometer. Controls were run along with test in a similar manner except using vehicle instead of test substance solution. Percent inhibition was calculated by comparing absorbance of test solution with that of control.
The corosolic acid analogs of this invention are found to show good 5-lipoxygenase activity (Table 2; 5-lipoxygenase activity is expressed in % of inhibition at 100 μM and 250 μM; higher the % inhibitory values, higher is the activity).

The nature of another series: in vivo. Particulars: Artemia salina (brine shrimp), pH 8.5; 24 h at 37° C., 10 nauplii per vial. The method, then:
(§1) Brine shrimp lethality: Brine shrimp (Artemia salina) nauplii were hatched using brine shrimp eggs in a conical shaped vessel (1 L), filled with sterile artificial sea water (prepared using sea salt 38 g/L and adjusted to pH 8.5 using 1 N NaOH) under constant aeration for 48 h. After hatching, 10 nauplii were drawn through a pepette and placed in each vial containing 4.5 mL brine solution and added various concentrations of drug solutions and volume was made upto 5 mL using brine solution and maintained at 37° C. for 24 h under the light of incandescent lamps and surviving larvae were counted. Each experiment was conducted along with control (vehicle treated), at various concentrations of the test substance in each set that contains 6 tubes and the average results are reported. The percentage lethality was determined by comparing the mean mortal larvae of test and control tubes. LC50 values were obtained from the plot of concentration (μg) vs. percentage lethality. Podophyllotoxin was used as a positive control.
(§2) The corosolic acid analogs of this invention are found to show significant brine shrimp lethality (Table 3; brine shrimp lethality is expressed in LC50 at μM concentration; lower the LC50 value, higher is the activity).

Series [1] concerns Brine shrimp (Artemia salina) nauplii. Nature of the series: in vivo. To be noted: 24 h at 37° C., 10 nauplii per vial. The method, then: as §1, §2

What is called LC50 is the concentration lethal to half of the exposed cells or organisms.

With `C[C@H]1[C@H](C)CC[C@]2(C(=O)O)CC[C@]3(C)C(=CC[C@@H]4[C@@]5(C)C[C@@H](O)[C@H](O)C(C)(C)[C@@H]5CC[C@]43C)[C@H]12` [Corosolic acid, 2α-hydroxyursolic acid], in the series with Albino wistar rats, the “SGL (mean ± SE)” value is 121.43 ± 6.27 mg/dL and the “Inhibitory rate (serum glucose level inhibitory rate)” value (“Inhibitory rate” for short) is 9.78. Moreover, in the series on 5-Lipoxygenase, the “5-LOX inhibitory activity (in words)” value is reported as “on par with 3-O-acetyl-11-keto-β-boswellic acid (AKBA)”. Moreover, in the series with 5-Lipoxygenase (100 μM), the “% inhibition of 5-Lox activity” value is 13.48%. In addition, the “% inhibition of 5-Lox activity” value in the series with 5-Lipoxygenase (250 μM) came to 29.26%. The compound also returned an LC50 at 24 h in the series “in vivo” of 3 µM.

With `COC(=O)[C@]12CC[C@@H](C)[C@H](C)[C@H]1C1=CC[C@@H]3[C@@]4(C)C[C@@H](O)[C@H](O)C(C)(C)[C@@H]4CC[C@@]3(C)[C@]1(C)CC2` [Compound 13, Methyl corosolate], in the series with Albino wistar rats, the “SGL (mean ± SE)” value was found to be 118.94 ± 8.61 mg/dL and the “Inhibitory rate” value is recorded as 11.6. In addition, the “% inhibition of 5-Lox activity” value with 5-Lipoxygenase (100 μM) stood at 17.3%. Besides, in the series on 5-Lipoxygenase (250 μM), the “% inhibition of 5-Lox activity” value was 40.04%. Further, the LC50 in series [1] was 10.2 µM.

On to `CC1CCC2(C(=O)N3CCNCC3)CCC3(C)C(=CCC4C5(C)CC(O)C(O)C(C)(C)C5CCC43C)C2C1C` (stereo not drawn) [Compound 11, N-(Corosolyl)piperazine], for which, in the series on Albino wistar rats, the “SGL (mean ± SE)” value came out at 107.88 ± 4.61 mg/dL and the “Inhibitory rate” value is recorded as 19.83. Besides, the “% inhibition of 5-Lox activity” value in the series with 5-Lipoxygenase (100 μM) is 35.42%. The “% inhibition of 5-Lox activity” value with 5-Lipoxygenase (250 μM) amounted to 64.99%. The same compound came in with a 50% lethal concentration (LC50) in series [1] of 9.2 µM.

As for `C[C@H]1[C@H](C)CC[C@]2(C(N)=O)CC[C@]3(C)C(=CC(O)[C@@H]4[C@@]5(C)C[C@@H](O)[C@H](O)C(C)(C)[C@@H]5CC[C@]43C)[C@H]12` (stereo partly drawn) [Compound 21, 11-Hydroxycorosolamide], in the series with Albino wistar rats, the “SGL (mean ± SE)” value stood at 121.57 ± 2.62 mg/dL and the “Inhibitory rate” value turned out to be 25.37. The “% inhibition of 5-Lox activity” value with 5-Lipoxygenase (100 μM) is given as 25.57%. Besides, the “% inhibition of 5-Lox activity” value in the series on 5-Lipoxygenase (250 μM) came out at 50.83%. In series [1], this compound showed an LC50 greater than 100 µM.

With `CC1CCC2(C(=O)O)CCC3(C)C(=CCC4C5(C)CC(OC(=O)CN)C(O)C(C)(C)C5CCC43C)C2C1C.Cl` (stereo not drawn) [Compound 4, 2-O-Glycylcorosolic acid hydrochloride], in the series with Albino wistar rats, the “SGL (mean ± SE)” value is reported as 119.23 ± 9.58 mg/dL and the “Inhibitory rate” value stood at 26.8. In addition, the “% inhibition of 5-Lox activity” value in the series on 5-Lipoxygenase (100 μM) is given as 17.04%. Further, in the series with 5-Lipoxygenase (250 μM), the “% inhibition of 5-Lox activity” value was found to be 27.83%. This compound yielded an LC50 in series [1] of 3.9 µM.

Turning to `CC1CCC23CCC4(C)C(=CC(OC2=O)C2C5(C)CC(O)C(O)C(C)(C)C5CCC24C)C3C1C` (stereo not drawn) [Compound 26, 2α,3β-Dihydroxyurs-12-en-11,28-olide], in the series with Albino wistar rats, the “SGL (mean ± SE)” value was 136.03 ± 4.43 mg/dL and the “Inhibitory rate” value turned out to be 6.97. The “% inhibition of 5-Lox activity” value with 5-Lipoxygenase (250 μM) turned out to be 10.47%. For the same compound, the LC50 in series [1] turned out to be 87 µM.

In “in vivo”, `COc1cc([C@@H]2c3cc4c(cc3[C@H](O)[C@H]3COC(=O)[C@H]23)OCO4)cc(OC)c1OC` [podophyllotoxin, Podophyllotoxin, reference compound] had an LC50 at 24 h of 7.7 µM.

In the case of `C[C@H]1[C@H](C)CC[C@]2(C(=O)Nc3ccccc3)CC[C@]3(C)C(=CC[C@@H]4[C@@]5(C)C[C@@H](O)[C@H](O)C(C)(C)[C@@H]5CC[C@]43C)[C@H]12` [Compound 9, N-Phenylcorosolamide], in the series on Albino wistar rats, the “SGL (mean ± SE)” value was determined as 117.97 ± 0.37 mg/dL and the “Inhibitory rate” value was 27.58. In the series with 5-Lipoxygenase (100 μM), the “% inhibition of 5-Lox activity” value came out at 8.16%. Further, the “% inhibition of 5-Lox activity” value in the series with 5-Lipoxygenase (250 μM) came out at 21.77%. Further, the LC50 in series [1] is greater than 100 µM.

For the origin of these results see patent publication US7893263B2, “Structural analogs of corosolic acid having anti-diabetic and anti-inflammatory properties” (Laila Nutraceuticals, priority 2004, dated 2011).
